# How the values were obtained:
# Type in all cases: in vivo
# CRH, ACTH and CORT = assay: Neurotransmitter measurement, overall statement on CRH, ACTH and CORT; details: chronically stressed rats
# Experimental: The rats were housed in individual cages with light and temperature control (temperature: 21±2° C.; lights on at 8:00 AM and off at 8:00 PM). Food and water were available ad libitum. All experimental procedures were carried out in strict accordance with the National Institutes of Health guidelines for care and use of experimental animals. After an initial habituation period of 1 week, all animals were given access to bottle containing a sucrose solution in tap water for 1 hour and were tested for the baseline data of the sucrose preference test. According to the baseline data, the animals were divided into 9 groups (n=10-12 animals/each group), that is the control group, the stressed group, the stressed+fluoxetine group, the stressed+Example 1 group, the stressed+ginseng extract group, the stressed+Radix paeoniae Alba extract group, the stressed+Tree Peony Bark extract group, the stressed+Sharpleaf Galangal Fruit extract group, and the stressed+Radix Polygonum multiflorum Preparata extract group. The animals were subjected to 2 to 5 different mild stressors per day for 5 weeks. […]
# (§1) The rats were sacrificed and the trunk blood was collected into the collection tubes coated with standard heparin. […] The levels of corticotropin-releasing hormone (CRH), adrenocorticotropic hormone (ACTH) and cortisol (CORT) were detected by ELISA. […]
# [1] = tested on: adrenocorticotropic hormone (ACTH); assay: Neurotransmitter measurement by ELISA: ACTH; details: trunk blood
# Experimental: (§2) The rats were housed in individual cages with light and temperature control (temperature: 21±2° C.; lights on at 8:00 AM and off at 8:00 PM). Food and water were available ad libitum. All experimental procedures were carried out in strict accordance with the National Institutes of Health guidelines for care and use of experimental animals. After an initial habituation period of 1 week, all animals were given access to bottle containing a sucrose solution in tap water for 1 hour and were tested for the baseline data of the sucrose preference test. According to the baseline data, the animals were divided into 9 groups (n=10-12 animals/each group), that is the control group, the stressed group, the stressed+fluoxetine group, the stressed+Example 1 group, the stressed+ginseng extract group, the stressed+Radix paeoniae Alba extract group, the stressed+Tree Peony Bark extract group, the stressed+Sharpleaf Galangal Fruit extract group, and the stressed+Radix Polygonum multiflorum Preparata extract group. The animals were subjected to 2 to 5 different mild stressors per day for 5 weeks. The mild stressors included water and food deprivation, cage tilt, continuously lighting, cage soiling, stroboscopic lighting, restricted access to food, and tail pinching. Control animals were not subjected to the stress protocol, and the stressed animals were subjected to the mild stressors and given the same amount of water as control group. The animals of the stressed+fluoxetine group were subjected to the mild stressors and treated with fluoxetine capsules. The animals of the stressed+Example 1 group were subjected to the mild stressors and treated with the composition of Example 1. The animals of the stressed+single extract group were subjected to the mild stressors and treated with the single extract.
# as §1
# [2] = tested on: chronically stressed rats; assay: Sucrose preference test in chronically stressed rats
# Experimental: as §2
# The rats could select between two bottles of liquid freely, one with 0.8% sucrose solution and one with tap water, after 23 h food and water deprivation. To avoid the rats prefer to drink one side of the water, the position of the two bottles were exchanged every half an hour. Tap water consumption and sucrose consumption were measured by weighting the bottles, and the sucrose preference were calculated based on the following formula: […]
# The rats were housed in individual cages with light and temperature control (temperature: 21±2° C.; lights on at 8:00 AM and off at 8:00 PM). Food and water were available ad libitum. All experimental procedures were carried out in strict accordance with the National Institutes of Health guidelines for care and use of experimental animals. After an initial habituation period of 1 week, all animals were given access to bottle containing a sucrose solution in tap water for 1 hour and were tested for the baseline data of the sucrose preference test. […]
# cortisol (CORT) = assay: Neurotransmitter measurement by ELISA: CORT; details: trunk blood
# Experimental: as §2, §1
# [3] = tested on: corticotropin-releasing hormone (CRH); assay: Neurotransmitter measurement by ELISA: CRH; details: trunk blood
# Experimental: as §2, §1
# [4] = Comparative study (Comparative Examples 1-7), chronically stressed rats
# [5] = Experimental Example 1, chronically stressed rats
# [6] = Experimental Example 2, chronically stressed rats
smiles,measurement,setting,value
CNCCC(Oc1ccc(C(F)(F)F)cc1)c1ccccc1 (centres unmarked) [fluoxetine],"Effect on the abnormal levels of CRH, ACTH and CORT caused by chronic stress (in words)","CRH, ACTH and CORT","improve the abnormal levels of CRH, ACTH and CORT"
same,ACTH,[1]; [4],32.73 ± 2.66 pg/mL
same,ACTH,[1]; [5],33.83 ± 2.26 pg/mL
same,ACTH,[1]; [6],33.83 ± 2.26 pg/mL
same,Sucrose Preference,"[2]; Comparative study (Comparative Example 1-7), mild stressors for 5 weeks, 0.8% sucrose vs tap water",0.7502 ± 0.0471
same,Sucrose Preferenc,"[2]; Experimental Example 1, mild stressors for 5 weeks, 0.8% sucrose vs tap water",0.7431 ± 0.0565
same,Sucrose Preference,"[2]; Experimental Example 2, mild stressors for 5 weeks, 0.8% sucrose vs tap water",0.7431 ± 0.0565
same,Change of sucrose preference compared with the stressed group (in words),[2]; compared with the stressed group,significantly increase the sucrose preference
same,CORT,cortisol (CORT); [4],52.46 ± 6.05 ng/mL
same,CORT,cortisol (CORT); [5],52.09 ± 5.95 ng/mL
same,CORT,cortisol (CORT); [6],52.09 ± 5.95 ng/mL
same,CRH,[3]; [4],5.11 ± 0.29 ng/mL
same,CRH,[3]; [5],5.13 ± 0.25 ng/mL
same,CRH,[3]; [6],5.13 ± 0.25 ng/mL
